Reference: patent US20130030000A1, “PHARMACEUTICAL COMPOSITIONS FOR THE TREATMENT OF PAIN AND OTHER INDICATIONS” (priority 2010, published 2013)
Structures can show the parent of a compound that is named as a salt.

Each compound was assayed on Complete Freunds Adjuvant model of inflammatory pain (assay: Combination study: isobolographic analysis in the Complete Freunds Adjuvant model of inflammatory pain). Conditions: rat, PO, etoricoxib:Compound A dose ratios 1:1, 0.3:1 and 3:1.
Assay type: in vivo
Protocol: Etoricoxib and Compound A were tested in PO dose ratios of 1:1, 0.3:1, and 3:1.

Row | SMILES | Interaction of analgesic effect against inflammatory pain when co-dosed (isobologram)
1 | Cc1ccc(-c2ncc(Cl)cc2-c2ccc(S(C)(=O)=O)cc2)cn1 [etoricoxib, reference compound] | additive
2 | CC(C)(O)c1ccc(-c2nc(-c3ccc(F)c(F)c3)oc2Sc2ccc(Cl)cn2)cn1 [compound A] | additive

The compounds below were run against T1, Human FAAH (Homo sapiens, UniProt O00519) (assay: Human FAAH lysate assay (CHO cell lysate expressing FAAH, AAMCA or 3H-anandamide hydrolysis)). Conditions: B series; read-out: Human FAAH lysate assay: IC50.
T1 construct: The full length FAAH was subcloned into the mammalian expression vector, peDEF.neo
T1 sequence (O00519 1-579): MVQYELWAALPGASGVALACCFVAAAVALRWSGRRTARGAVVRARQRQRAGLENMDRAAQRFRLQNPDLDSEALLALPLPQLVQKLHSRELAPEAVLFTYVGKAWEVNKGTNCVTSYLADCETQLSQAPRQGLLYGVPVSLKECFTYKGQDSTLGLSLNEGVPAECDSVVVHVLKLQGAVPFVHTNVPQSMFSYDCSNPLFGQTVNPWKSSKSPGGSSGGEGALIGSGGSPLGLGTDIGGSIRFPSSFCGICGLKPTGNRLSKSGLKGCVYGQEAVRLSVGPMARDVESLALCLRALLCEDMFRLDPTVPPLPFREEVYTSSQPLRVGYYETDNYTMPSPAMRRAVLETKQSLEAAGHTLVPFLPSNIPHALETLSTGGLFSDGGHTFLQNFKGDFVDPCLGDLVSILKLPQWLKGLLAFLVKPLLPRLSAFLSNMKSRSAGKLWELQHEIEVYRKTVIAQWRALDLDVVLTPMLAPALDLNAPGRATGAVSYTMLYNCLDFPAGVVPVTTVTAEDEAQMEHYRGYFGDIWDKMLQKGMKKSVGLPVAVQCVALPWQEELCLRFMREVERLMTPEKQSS
Assay type: biochemical
Excerpt: To assist in assay development stable cell lines for human, murine and rat full length FAAH were developed. […] The full length FAAH was subcloned into the mammalian expression vector, peDEF.neo, using XbaI and EcoRI restriction sites and used for stable cell line generation.
CHO cells expressing FAAH were used to prepare either crude cell lysate or microsome fractions. To harvest cells, tissue culture media was decanted, the monolayer washed three times with Ca^++Mg^++ free PBS and cells recovered after […] in enzyme free dissociation media (Millipore Corp, Billerica, Mass.). Cells were collected by centrifuging at 2000 rpm for 15 min. and the cell pellet re-suspended with 50 mM HEPES (pH 7.4) containing 1 mM EDTA and the protease inhibitors aprotinin (1 mg/ml) and leupeptin (100 μM). The suspension was sonicated at 4° C. and the cell lysate recovered after centrifuging at 12,000×g (14,600 rpm, SS34 rotor) for 20 min at 4° C. to form a crude pellet of cell debris, nuclei, peroxisomes, lysosomes, and mitochondria; the supernatant or cell lysate was used for FAAH enzyme assay. In some cases, microsomes fractions enriched in FAAH were prepared by centrifuging the cell lysate further at 27,000 rpm (100,000×g) in SW28 rotor for 50 minutes at 4° C. The pellet containing FAAH-enriched microsomes was re-suspend in 50 mM HEPES, (pH 7,4) 1 mM EDTA, and any remaining DNA sheared by passage of material through a 23 gauge needle and aliquots of enzyme were store at −80° C. prior to use.
Assays are performed on either cell lysate or microsome fractions prepared as described or in whole cell format employing either the fluorescent substrate AAMCA (Cayman chemical, Ann Arbor, Mich.,) or ^3H-anandamide ([ETHANOLAMINE-1-3H] American Radiolabeled Chemicals; 1 mCi/ml). The cell lysate or microsome assay is performed in Costar black wall, clear bottom plates by adding FAAH_CHO (whole cell, cell lysate or microsome) in assay buffer (50 mM Phosphate, pH 8.0, 1 mM EDTA, 200 mM KCl, 0.2% glycerol, 0.1% fatty acid free BSA) to each well, followed by either DMSO or compound and allowed to incubate at 22-25° C. for fifteen minutes. AAMCA substrate was used to achieve a final concentration of 1 μM and reaction allowed to proceed at room temperature for 1-3 hours. […] Whole cell assay is conducted with cells harvested after rinsing tissue culture flasks three times with Ca^++Mg^++ free PBS, incubating for 10 mm in Enzyme free dissociation media and centrifuging for 5 minutes at 1,000 rpm in table top centrifuge. Cells are resuspended in assay buffer at desired cell number in (4×10^4 cells/assay in 96-well format; 1×10^4 cells/assay in 384-well format) and assayed as described.
Alternatively, assays are performed using anandamide [ethanolamine 1-^3H] (specific activity of 10 Ci/mmol) diluted with cold anandamide to achieve a final assay concentration of 1 μM anandamide (˜50,000 cpm). Enzyme (CHO cell lysate, brain or liver homogenate) is incubated in assay buffer (50 mM Phosphate, pH 8.0, 1 mM EDTA, 200 mM KCl, 0.2% glycerol, 0.1% fatty acid free BSA) with inhibitor at 25° C. for 30 minutes. The reaction was terminated by addition of 2 volumes of chloroform:methanol (1:1) and mixed by vortexing. Following a centrifugation step, 2000 rpm for 10 min. at room temperature, the aqueous phase containing the released […] was recovered and quantitated by liquid scintillation as a reflection of FAAH enzyme activity.

Row | SMILES | IC50
3 | Cn1cnc(-c2ccc([C@H]3C[C@@H]3c3nn[nH]n3)cc2)c1Sc1ccc(Cl)cn1 [Example 37B, 5-[(5-chloropyridin-2-yl)thio]-1-methyl-4-{4-[(1S,2S)-2-(2H-tetrazol-5-yl)cyclopropyl]phenyl}-1H-imidazol-3-ium trifluoroacetate] | 167 nM
4 | Cn1cnc(-c2ccc([C@H]3C[C@@H]3CO)cc2)c1Sc1ccc(Cl)cn1 [Example 23B, [(1S,2S)-2-(4-{5-[(5-Chloropyridin-2-yl)thio]-1-methyl-1H-imidazol-4-yl}phenyl)cyclopropyl]methanol] | 88.4 nM
5 | CN(C)C(=O)[C@H]1C[C@@H]1c1ccc(-c2ncn(C)c2Sc2ccc(Cl)cc2)cc1 [Example 9B] | 0.3 nM

Next, values leading:

Row | IC50 | SMILES
6 | 69.3 nM | Cn1cnc(-c2ccc([C@H]3C[C@@H]3COCCF)cc2)c1Sc1ccc(Cl)cn1 [Example 25B, 5-Chloro-2-{[4-(4-{(1S,2S)-2-[(2-fluoroethoxy)methyl]cyclopropyl}phenyl)-1-methyl-1H-imidazol-5-yl]thio}pyridine]
7 | 46 nM | Cc1nnc([C@H]2C[C@@H]2c2ccc(-c3ncn(C)c3Sc3ccc(Cl)cn3)cc2)o1 [Example 19B, 5-Chloro-2-[(1-methyl-4-{4-[(1S,2S)-2-(5-methyl-1,3,4-oxadiazol-2-yl)cyclopropyl]phenyl}-1H-imidazol-5-yl)thio]pyridine]
8 | 58.4 nM | Cn1cnc(-c2ccc([C@H]3C[C@@H]3c3ncon3)cc2)c1Sc1ccc(Cl)cn1 [Example 35B, 5-chloro-2-[(1-methyl-4-{4-[(1S,2S)-2-(1,2,4-oxadiazol-3-yl)cyclopropyl]phenyl}-1H-imidazol-5-yl)thio]pyridine]
9 | 171 nM | Cn1cnc(-c2ccc([C@H]3C[C@@H]3c3nn(C)c(=O)o3)cc2)c1Sc1ccc(Cl)cn1 [Example 3013, 5-[(1S,2S)-2-(4-{5-[(5-chloropyridin-2-yl)thio]-1-methyl-1H-imidazol-4-yl}phenyl)cyclopropyl]-3-methyl-1,3,4-oxadiazol-2(3H)-one]
10 | 8.7 nM | Cn1cnc(-c2ccc([C@H]3C[C@@H]3C(C)(C)O)cc2)c1Sc1ccc(Cl)cn1 [Example 22B, 2-[(1S,2S)-2-(4-{5-[(5-Chloropyridin-2-yl)thio]-1-methyl-1H-imidazol-4-yl}phenyl)cyclopropyl]propan-2-ol]

Same assay, conditions: tables of the B series; read-out: hFAAH lysate IC50

Row | SMILES | IC50
11 | Cn1cnc(-c2ccc(C3CC3C(N)=O)cc2)c1Sc1ccc(Cl)cn1 (stereo not drawn) [Example 4B] | 2.6 nM
12 | CC(C)c1ccc(Sc2c(-c3ccc([C@H]4C[C@@H]4c4n[nH]c(=O)o4)cc3)ncn2C)cc1 [Example 43B] | 20 nM
13 | Cn1cnc(-c2ccc([C@H]3C[C@@H]3c3n[nH]c(=O)o3)cc2)c1Sc1ccc(Cl)cc1F [Example 42B] | 1.8 nM

Next, values leading:

Row | IC50 | SMILES
14 | 1.3 nM | Cn1cnc(-c2ccc([C@H]3C[C@@H]3c3n[nH]c(=O)o3)cc2)c1Sc1ccc(F)cc1F [Example 41B]
15 | 12.7 nM | NC(=O)[C@H]1C[C@@H]1c1ccc(-c2ncn(CCF)c2Sc2ccc(Cl)cn2)cc1 [Example 16B]
